Experimental data taken from patent US9221790B2, “Benzamide derivatives” (Dong-A Pharm. Co., Ltd., priority 2010, dated 2015).
Where two headings read alike, the source gives them in different places.

Experiments:
human 5-HT4 receptor = human 5-HT4 receptor (Homo sapiens (Human), UniProt Q13639); experiment: Binding affinity of compounds for 5-HT4 receptor ([H3]-GR113808 radioligand, COS-7 membrane homogenates)
Protocol: The binding affinity of the compounds for a human 5-HT4 receptor was assayed according to the method as disclosed in the literature [Wyngaert et al., Journal of Neurochemistry, (1997) 69, 1810-1819]. For this purpose, COS-7 cells expressing the human 5-HT4 receptor were constructed and homogenized to obtain membrane homogenates which were then used in binding assay experiments. For the binding assay, the membrane homogenates were respectively mixed and incubated with different concentrations of test materials and [H3]-GR113808 (Amersham Biosciences). The concentrations of the individual test materials were set to 4 μM, 1 μM, 0.25 μM, and 0.0625 μM, respectively, and the concentration of [H3]-GR113808 was set to 0.595 nM. After the incubation was completed, the reaction products were collected in GF/B glass fiber filters using a Packard cell harvester, and the bound radioactivity was then determined using a liquid cell scintillation counter (Packard TopCount NXT™, Perkin Elmer). Specific binding of the radioligand to the 5-HT4 receptor was calculated by subtracting the non-specific binding of the radioligand from the total radioligand binding. IC50 was calculated from % inhibition of specific binding of the radioligand to the 5-HT4 receptor, with respect to varying concentrations of the test materials.

ICR mice = experiment: Acute oral toxicity of compounds in mice; type: in vivo; conditions: male ICR mice, single oral dose 1 g/10 mL/kg, 2 weeks observation
Protocol: 200 mg of each of Example compounds was triturated in 1% hydroxypropyl methyl-cellulose, and the resulting triturations were then orally administered to 5-week old male ICR mice (20 g±2 g, n=5) at a dose of 1 g/10 mL/kg. The minimum lethal dose (MLD, mg/kg) of the individual compounds was investigated by the observation of the mortality, body weight, clinical symptoms and the like of animals over the entire experimental period of 2 weeks.

hERG potassium channel = hERG potassium channel (Homo sapiens (Human), UniProt Q12809); experiment: Binding affinity for hERG potassium channel ([H3]-Astemizole radioligand, HEK-293 membrane homogenates, MDS Pharma Service); conditions: probe [H3]-Astemizole (1.5 nM), 10 μM test material, 1.5 nM [H3]-Astemizole, hERG K+ channel, HEK-293 membranes
Protocol: The binding affinity of the compounds for the human ether-a-go-go-related gene (hERG) potassium (K+) channel which is associated with cardiac QT prolongation was assayed in MDS Pharma Service (Catalog No. 265900). Membrane homogenates were obtained from mammalian HEK-293 cells expressing the hERG potassium channel and then used in the binding assay experiment. For the binding assay experiment, the membrane homogenates were respectively mixed and incubated with 10 μM of test materials and 1.5 nM of [H3]-Astemizole (Perkin Elmer). After the incubation was completed, the radioactivity bound to the hERG K+ channel was counted. The affinity of each test material for the hERG K+ channel was calculated from % inhibition of specific binding of the radioligand to the hERG K+ channel, resulting from the action of the test material.

SD rats = experiment: Evaluation of gastric emptying; type: in vivo, rat; conditions: 5 mg/kg oral, semi-solid diet 1 hour after dosing, stomach extracted 50 minutes after meal
Protocol: Evaluation of gastric emptying was carried out based on the method described in Iwanaga Y, et al., Jpn J Pharmacol. 1991, 56(3), 261-269. As experimental animals, SD rats (240 to 250 g) were used and divided into groups (n=5 to 6). On the day prior to the experiment, animals were fasted for 18 hours. Test materials were formulated as suspensions thereof in 0.5% (w/v) methylcellulose and were orally administered to the animals at a dose of 5 mg/kg. 1 hour after the oral administration of the test materials, 2 mL of a semi-solid diet was orally administered to the animals. The semi-solid diet was in the form of porridge formulated by pulverizing a standard solid diet together with distilled water in a mixer. 50 minutes after the administration of the semi-solid diet, the animals were sacrificed by cervical dislocation. After carrying out an abdominal incision, the stomach was extracted from the animals. The weight of diet remaining in the stomach was measured to thereby determine the gastric emptying rate (%). The gastric emptying rate was calculated according to the following equation.
Gastric Emptying Rate (%)=(1−X/Y)*100
X: Weight of diet remaining in the stomach extracted 50 minutes after administration of meal
Y: Weight of diet remaining in the stomach extracted immediately after administration of meal

[1] = inhibition of specific binding of 0.595 nM [H3]-GR113808 to human 5-HT4 receptor, COS-7 membranes, read-out: IC50

Sequence of human 5-HT4 receptor (Q13639 whole entry): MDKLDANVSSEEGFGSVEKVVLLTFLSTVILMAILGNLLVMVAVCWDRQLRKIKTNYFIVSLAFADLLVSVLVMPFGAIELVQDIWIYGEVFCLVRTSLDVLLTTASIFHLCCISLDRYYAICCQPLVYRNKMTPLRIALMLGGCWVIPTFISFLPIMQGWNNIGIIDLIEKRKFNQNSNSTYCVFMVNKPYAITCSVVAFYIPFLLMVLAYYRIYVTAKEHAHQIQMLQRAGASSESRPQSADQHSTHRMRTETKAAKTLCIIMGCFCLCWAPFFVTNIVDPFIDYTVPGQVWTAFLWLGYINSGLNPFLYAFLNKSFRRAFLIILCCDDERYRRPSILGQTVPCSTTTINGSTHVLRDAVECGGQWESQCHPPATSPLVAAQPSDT
Sequence of hERG potassium channel (Q12809 whole entry): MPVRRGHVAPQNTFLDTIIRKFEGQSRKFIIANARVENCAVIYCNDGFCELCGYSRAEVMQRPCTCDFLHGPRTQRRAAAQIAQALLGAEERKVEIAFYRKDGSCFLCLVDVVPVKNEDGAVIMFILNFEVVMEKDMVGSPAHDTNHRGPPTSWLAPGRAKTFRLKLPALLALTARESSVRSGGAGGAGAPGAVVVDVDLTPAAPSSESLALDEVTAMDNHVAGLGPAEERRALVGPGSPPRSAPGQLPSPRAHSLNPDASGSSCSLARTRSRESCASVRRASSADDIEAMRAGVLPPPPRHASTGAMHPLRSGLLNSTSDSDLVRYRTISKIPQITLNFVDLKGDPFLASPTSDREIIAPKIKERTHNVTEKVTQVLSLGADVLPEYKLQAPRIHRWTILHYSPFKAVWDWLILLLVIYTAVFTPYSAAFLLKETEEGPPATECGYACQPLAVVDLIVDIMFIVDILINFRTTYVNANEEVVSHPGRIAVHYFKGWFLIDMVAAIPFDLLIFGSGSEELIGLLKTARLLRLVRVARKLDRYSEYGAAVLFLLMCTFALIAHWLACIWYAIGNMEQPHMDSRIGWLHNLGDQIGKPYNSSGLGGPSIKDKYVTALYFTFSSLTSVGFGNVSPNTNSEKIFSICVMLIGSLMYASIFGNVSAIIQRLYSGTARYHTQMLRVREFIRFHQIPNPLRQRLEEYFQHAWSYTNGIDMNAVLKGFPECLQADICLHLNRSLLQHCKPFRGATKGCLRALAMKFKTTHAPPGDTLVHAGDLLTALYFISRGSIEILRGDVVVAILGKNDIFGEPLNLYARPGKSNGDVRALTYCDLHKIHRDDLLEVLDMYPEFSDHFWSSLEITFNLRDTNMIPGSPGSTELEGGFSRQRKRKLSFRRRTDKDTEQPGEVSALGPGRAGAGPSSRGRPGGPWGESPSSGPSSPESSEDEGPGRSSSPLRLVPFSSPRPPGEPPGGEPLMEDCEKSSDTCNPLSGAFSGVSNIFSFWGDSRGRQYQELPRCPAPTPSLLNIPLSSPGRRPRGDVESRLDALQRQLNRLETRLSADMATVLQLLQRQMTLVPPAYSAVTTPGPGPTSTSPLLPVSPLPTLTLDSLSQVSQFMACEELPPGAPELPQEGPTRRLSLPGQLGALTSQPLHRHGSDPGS

SMILES	IC50 (human 5-HT4 receptor; [1])	Minimum lethal dose (MLD) (ICR mice)	inhibition at 10 μM (hERG potassium channel)	Gastric emptying rate (SD rats)	IC50 (human 5-HT4 receptor)
COc1cc(N)c(Cl)cc1C(=O)NCC1CCN(CCCn2nccn2)CC1 [Example 8, N-((1-(3-(1,2,3-triazol-2-yl)propyl)piperidin-4-yl)methyl)-4-amino-5-chloro-2-methoxybenzamide]	0.182 nM	>1000 mg/kg	15%	49.1%	–
COc1cc(N)c(Cl)cc1C(=O)NCC1CCN(CCCn2cnnn2)CC1 [Example 2, N-((1-(3-(tetrazol-1-yl)propyl)piperidin-4-yl)methyl)-4-amino-5-chloro-2-methoxybenzamide]	0.164 nM	>1000 mg/kg	4%	52.8%	–
COc1cc(N)c(Cl)cc1C(=O)NCC1CCN(Cc2cn(C)c3ccccc23)CC1 [Example 10, N-((1-((1-methylindol-3-yl)methyl)piperidin-4-yl)methyl)-4-amino-5-chloro-2-methoxybenzamide]	0.076 nM	>1000 mg/kg	–	59.1%	–
COc1cc(N)c(Cl)cc1C(=O)NCC1CCN(Cc2ncc[nH]2)CC1 [Example 11, N-((1-(imidazol-2-ylmethyl)piperidin-4-yl)methyl)-4-amino-5-chloro-2-methoxybenzamide]	0.454 nM	>1000 mg/kg	21%	43.1%	–
COc1cc(N)c(Cl)cc1C(=O)NCC1CCN(CCCn2cncn2)CC1 [Example 1, N-((1-(3-(1,2,4-triazol-1-yl)propyl)piperidin-4-yl)methyl)-4-amino-5-chloro-2-methoxybenzamide]	0.226 nM	>1000 mg/kg	1%	43.0%	–
COc1cc(N)c(Cl)cc1C(=O)NCC1CCN(CCc2c[nH]c3ccccc23)CC1 [Example 15, N-((1-(2-(indol-3-yl)ethyl)piperidin-4-yl)methyl)-4-amino-5-chloro-2-methoxybenzamide]	–	>1000 mg/kg	–	41.3%	0.002 nM
COc1cc(N)c(Cl)cc1C(=O)NCC1CCN(CCCCCn2ccc3ccccc32)CC1 [Example 5, N-((1-(5-(indol-1-yl)pentyl)piperidin-4-yl)methyl)-4-amino-5-chloro-2-methoxybenzamide]	0.005 nM	>1000 mg/kg	–	52.0%	–
COc1cc(N)c(Cl)cc1C(=O)NCC1CCN(Cc2cccn2C)CC1 [Example 12, N-((1-((1-methylpyrrol-2-yl)methyl)piperidin-4-yl)methyl)-4-amino-5-chloro-2-methoxybenzamide]	0.421 nM	>1000 mg/kg	32%	62.0%	–
COc1cc(N)c(Cl)cc1C(=O)NCC1CCN(CCCn2ccc3ccccc32)CC1 [Example 3, N-((1-(3-(indol-1-yl)propyl)piperidin-4-yl)methyl)-4-amino-5-chloro-2-methoxybenzamide]	0.039 nM	>1000 mg/kg	–	45.2%	–
COc1cc(N)c(Cl)cc1C(=O)NCC1CCN(Cc2ccc(O)cc2)CC1 [Example 14, N-((1-(4-hydroxybenzyl)piperidin-4-yl)methyl)-4-amino-5-chloro-2-methoxybenzamide]	0.375 nM	>1000 mg/kg	40%	42.1%	–
COc1cc(N)c(Cl)cc1C(=O)NCC1CCN(Cc2cccnc2)CC1 [Example 9, N-((1-(pyridin-3-ylmethyl)piperidin-4-yl)methyl)-4-amino-5-chloro-2-methoxybenzamide]	0.267 nM	>1000 mg/kg	6%	51.2%	–
COc1cc(N)c(Cl)cc1C(=O)NCC1CCN(Cc2ccc(F)cc2)CC1 [Example 13, N-((1-(4-fluorobenzyl)piperidin-4-yl)methyl)-4-amino-5-chloro-2-methoxybenzamide]	0.134 nM	>1000 mg/kg	52%	52.3%	–
COc1cc(N)c(Cl)cc1C(=O)NCC1CCN(CCCCCn2ccnn2)CC1 [Example 6, N-((1-(5-(1,2,3-triazol-1-yl)pentyl)piperidin-4-yl)methyl)-4-amino-5-chloro-2-methoxybenzamide]	0.103 nM	>1000 mg/kg	8%	46.0%	–
COc1cc(N)c(Cl)cc1C(=O)NCC1CCN(CCCn2ccnc2C)CC1 [Example 4, N-((1-(3-(2-methylimidazol-1-yl)propyl)piperidin-4-yl)methyl)-4-amino-5-chloro-2-methoxybenzamide]	0.229 nM	>1000 mg/kg	14%	46.4%	–
COc1cc(N)c(Cl)cc1C(=O)NCC1CCN(CCCn2ccnn2)CC1 [Example 7, N-((1-(3-(1,2,3-triazol-1-yl)propyl)piperidin-4-yl)methyl)-4-amino-5-chloro-2-methoxybenzamide]	0.067 nM	>1000 mg/kg	7%	56.1%	–
